Data on 25 compounds can be found in ChEMBL document CHEMBL4261574 (Medchemcomm, 2018).

Usually IC50 stands for the concentration that inhibits the measured activity by half. The term solubility denotes the dissolved amount per volume that the medium holds. A low value points to a poorly soluble substance. The term pKa denotes the pH at which an ionisable group is half protonated.

Data set [1] addresses T1, Prostaglandin G/H synthase 1 (Ovis aries, UniProt P05979).
T1 sequence (P05979 whole entry): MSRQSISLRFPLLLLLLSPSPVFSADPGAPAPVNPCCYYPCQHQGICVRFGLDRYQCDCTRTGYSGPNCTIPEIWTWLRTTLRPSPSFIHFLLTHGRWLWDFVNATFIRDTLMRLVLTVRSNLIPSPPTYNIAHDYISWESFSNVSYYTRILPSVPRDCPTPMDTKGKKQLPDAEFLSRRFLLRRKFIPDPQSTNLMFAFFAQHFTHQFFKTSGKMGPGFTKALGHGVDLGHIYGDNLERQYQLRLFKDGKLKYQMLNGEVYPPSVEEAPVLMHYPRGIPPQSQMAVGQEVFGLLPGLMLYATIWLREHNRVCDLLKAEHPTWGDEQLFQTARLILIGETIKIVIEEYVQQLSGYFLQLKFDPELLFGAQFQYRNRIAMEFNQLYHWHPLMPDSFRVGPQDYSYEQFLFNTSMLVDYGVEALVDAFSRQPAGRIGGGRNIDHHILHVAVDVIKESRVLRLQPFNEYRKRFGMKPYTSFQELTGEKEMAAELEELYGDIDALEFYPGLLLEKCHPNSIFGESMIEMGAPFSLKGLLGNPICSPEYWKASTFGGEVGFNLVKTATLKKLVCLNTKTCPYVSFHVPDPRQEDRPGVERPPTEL
Briefly: Inhibition of ovine COX-1 assessed as reduction of prostaglandin-G2 to prostaglandin-H2 by measuring oxidation of 10-acetyl-3,7-dihydroxyphenoxazine to resorufin after 5 mins by fluorescence based assay.

Data set [2] addresses T2, Prostaglandin G/H synthase 2 (Homo sapiens, UniProt P35354).
T2 sequence (P35354 whole entry): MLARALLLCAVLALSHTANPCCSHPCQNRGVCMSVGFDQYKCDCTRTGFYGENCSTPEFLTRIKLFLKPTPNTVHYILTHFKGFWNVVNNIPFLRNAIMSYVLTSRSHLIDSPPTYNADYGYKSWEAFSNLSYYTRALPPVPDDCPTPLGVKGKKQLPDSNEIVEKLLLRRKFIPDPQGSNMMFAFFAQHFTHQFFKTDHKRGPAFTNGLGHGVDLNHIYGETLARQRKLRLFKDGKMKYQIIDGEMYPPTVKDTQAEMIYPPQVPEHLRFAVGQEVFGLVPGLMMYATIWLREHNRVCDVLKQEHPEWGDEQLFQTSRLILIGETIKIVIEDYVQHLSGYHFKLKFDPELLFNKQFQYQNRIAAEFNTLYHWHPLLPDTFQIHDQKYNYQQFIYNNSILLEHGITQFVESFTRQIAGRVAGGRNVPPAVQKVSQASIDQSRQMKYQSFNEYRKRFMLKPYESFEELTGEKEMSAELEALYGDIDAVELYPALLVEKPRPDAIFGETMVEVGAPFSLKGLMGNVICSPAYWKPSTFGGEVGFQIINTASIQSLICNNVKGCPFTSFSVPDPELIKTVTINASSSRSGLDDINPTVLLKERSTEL

Data set [3] is described as follows: Selectivity index, ratio of IC50 for ovine COX-1 to IC50 for recombinant human COX-2.
Data set [4] in a line: Solubility of compound in normal saline. In kind it is physicochemical.
Data set [5] is described as follows: Dissociation constant, pKa of compound. The format is physicochemical.

Take `C[Si](C)(C)c1onc(-c2ccc(F)cc2)c1-c1ccc(S(C)(=O)=O)cc1`: the IC50 is above 100 µM in data set [1] and 1.87 µM in data set [2]. The Ratio IC50 in data set [3] was above 54.
The corresponding values for `NS(=O)(=O)c1ccc(-c2cc(-c3ccc(F)cc3)no2)cc1` are above 100 µM, 81.2 µM and above 1.2.
As to `CC(=O)c1onc(-c2ccc(F)cc2)c1-c1ccc(S(C)(=O)=O)cc1`, the IC50 in data set [1] and in data set [2] was above 100 µM in each case.
For `COC(=O)c1onc(-c2ccc(F)cc2)c1-c1ccc(S(C)(=O)=O)cc1`, the IC50 in data set [1] and in data set [2] was above 100 µM throughout.
Take `CS(=O)(=O)c1ccc(-c2conc2-c2ccccc2)cc1`: the values for the IC50 in data set [1] and in data set [2] were above 100 µM and 0.247 µM, respectively. For the same compound, the Ratio IC50 in data set [3] is above 400.
For `CS(=O)(=O)c1ccc(-c2c(-c3ccc(F)cc3)noc2C(=O)c2ccccc2)cc1`, the IC50 in data set [1] and in data set [2] was above 100 µM in each case.
`NS(=O)(=O)c1ccc(-c2conc2-c2ccccc2)cc1`: the IC50 in data set [1] is above 100 µM; in data set [2], 0.048 µM. The Ratio IC50 in data set [3] was above 2100.
The corresponding values for `NS(=O)(=O)c1ccc(-c2conc2-c2ccc(F)cc2)cc1` are above 100 µM, 0.042 µM and above 2400.
In the same order, the values of `CS(=O)(=O)c1ccc(-c2cc(-c3ccccc3)no2)cc1` are above 100 µM, 13.5 µM and above 7.4.
Turning to `CCC(=O)NS(=O)(=O)c1ccc(-c2c(-c3ccccc3)noc2C)cc1` [PARECOXIB], the solubility in data set [4] was above 50 mg/mL.
On to `C[Si](C)(C)c1onc(-c2ccccc2)c1-c1ccc(S(N)(=O)=O)cc1`, for which the figures for the IC50 in data set [1] and in data set [2] were above 100 µM and 0.13 µM, respectively. Besides, the Ratio IC50 in data set [3] is above 770.
For the compound `CS(=O)(=O)c1ccc(-c2cc(-c3ccc(F)cc3)no2)cc1`, the IC50 in data set [1] and in data set [2] was above 100 µM in each case.
As to `C[Si](C)(C)c1c(-c2ccc(F)cc2)noc1-c1ccc(S(N)(=O)=O)cc1`, the IC50 was above 100 µM in data set [1] and 38.2 µM in data set [2]. Moreover, the Ratio IC50 in data set [3] was above 2.6.
The corresponding values for `CS(=O)(=O)c1ccc(-c2conc2-c2ccc(F)cc2)cc1` are above 100 µM, 0.057 µM and above 1800.
Consider `C[Si](C)(C)c1c(-c2ccccc2)noc1-c1ccc(S(C)(=O)=O)cc1`, for which the IC50 in data set [1] and in data set [2] was above 100 µM throughout.
`C[Si](C)(C)c1c(-c2ccc(F)cc2)noc1-c1ccc(S(C)(=O)=O)cc1`: the IC50 in data set [1] and in data set [2] was above 100 µM each time.
Consider `C[Si](C)(C)c1c(-c2ccccc2)noc1-c1ccc(S(N)(=O)=O)cc1`, for which the IC50 is above 100 µM in data set [1] and 11.1 µM in data set [2]. Further, the Ratio IC50 in data set [3] is above 9.
Take `CS(=O)(=O)c1ccc(-c2c(-c3ccc(F)cc3)noc2C=O)cc1`: the IC50 in data set [1] is above 100 µM; in data set [2], 13.8 µM. Besides, the Ratio IC50 in data set [3] was above 7.
Regarding `C[Si](C)(C)c1onc(-c2ccccc2)c1-c1ccc(S(C)(=O)=O)cc1`, the IC50 in data set [1] is above 100 µM; in data set [2] it was 4.17 µM. Moreover, the Ratio IC50 in data set [3] came to 23.9.
The corresponding values for `CS(=O)(=O)c1ccc(-c2c(-c3ccc(F)cc3)noc2C(F)(F)F)cc1` are above 100 µM, 8.14 µM and above 12.
`NS(=O)(=O)c1ccc(-c2cc(-c3ccccc3)no2)cc1`: the IC50 in data set [1] was above 100 µM; in data set [2], 10.8 µM. In addition, in data set [3], the Ratio IC50 is above 9.3.
In the same order, the values of `CS(=O)(=O)c1ccc(-c2c(-c3ccc(F)cc3)noc2Cl)cc1` are 10.1 µM, 0.351 µM and 28.7.
`C[Si](C)(C)c1onc(-c2ccc(F)cc2)c1-c1ccc(S(N)(=O)=O)cc1`: the IC50 is above 100 µM in data set [1] and 0.93 µM in data set [2]. Also, the Ratio IC50 in data set [3] is above 110.
Regarding `Cc1onc(-c2ccc(F)cc2)c1-c1ccc(S(N)(=O)=O)cc1`, the IC50 in data set [1] was above 100 µM; in data set [2], 0.073 µM. The Ratio IC50 in data set [3] was above 1400.
With `Cc1onc(-c2ccccc2)c1-c1ccc(S(N)(=O)=O)cc1` [VALDECOXIB], the solubility in data set [4] came to 10 mM. The pKa in data set [5] came to 9.8.
